# Measured values reported in patent publication US10894798B2, “Substituted dihydropyrrolopyrazole derivative” (UBE INDUSTRIES, LTD., priority 2015, dated 2021).
# Legend:
# CDK7 = target: T1, CDK7 (Homo sapiens, UniProt P50613); test: CDK7 enzyme inhibition test; format: biochemical; details: [γ-33P]ATP, MBP substrate, 60 min preincubation at 25°C; Ki=IC50/(1+S/Km); read-out: Ki value of CDK7 inhibitory activity
# T1 construct: purchased Carna Biosciences, Inc. 04-108
# In short: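 Commercial human CDK7 with myelin basic protein substrate in HEPES pH 7.4 buffer with DTT, Triton X-100, MgCl2; compound preincubated 60 min at 25° C, then reaction run 20 min at 30° C after adding [γ-^33P]ATP (500 μM solution). TCA-precipitated ^33P-MBP counted by scintillation; IC50 converted to Ki via Ki=IC50/(1+S/Km).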
# CDK2 = target: T2, CDK2 (Homo sapiens, UniProt P24941); test: CDK2 enzyme inhibition test; format: biochemical; details: [γ-33P]ATP, MBP substrate; Ki=IC50/(1+S/Km); read-out: Ki value of CDK2 inhibitory activity
# T2 construct: purchased Invitrogen Corp. PV3267
# In short: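 Commercial CDK2 phosphorylated MBP with [γ-33P]ATP (500 μM solution before mixing) in HEPES pH 7.4 buffer with DTT, Triton X-100 and MgCl2 for 20 min at 30 °C. TCA-precipitated 33P-MBP was counted by scintillation to give the IC50. Ki = IC50/(1+S/Km), with S the ATP concentration in the reaction.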
# T1 sequence (P50613 whole entry): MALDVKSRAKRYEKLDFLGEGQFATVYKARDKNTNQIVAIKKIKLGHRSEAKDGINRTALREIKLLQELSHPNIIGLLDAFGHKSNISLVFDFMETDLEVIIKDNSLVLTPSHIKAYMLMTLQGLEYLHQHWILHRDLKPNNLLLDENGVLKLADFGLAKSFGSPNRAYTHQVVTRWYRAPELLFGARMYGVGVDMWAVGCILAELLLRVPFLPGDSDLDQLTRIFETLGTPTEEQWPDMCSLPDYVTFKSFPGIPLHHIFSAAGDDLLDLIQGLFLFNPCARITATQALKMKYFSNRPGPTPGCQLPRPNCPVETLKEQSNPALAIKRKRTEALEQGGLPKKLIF
# T1 sequence (P51946 whole entry partner): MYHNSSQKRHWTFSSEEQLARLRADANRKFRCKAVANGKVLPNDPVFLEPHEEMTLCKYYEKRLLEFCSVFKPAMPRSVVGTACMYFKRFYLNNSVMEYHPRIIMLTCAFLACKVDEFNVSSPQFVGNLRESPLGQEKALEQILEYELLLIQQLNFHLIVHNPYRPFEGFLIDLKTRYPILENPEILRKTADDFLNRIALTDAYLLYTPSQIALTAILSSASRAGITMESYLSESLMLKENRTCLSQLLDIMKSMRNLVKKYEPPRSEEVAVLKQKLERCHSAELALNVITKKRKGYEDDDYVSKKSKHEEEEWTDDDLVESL
# T1 sequence (P51948 whole entry partner): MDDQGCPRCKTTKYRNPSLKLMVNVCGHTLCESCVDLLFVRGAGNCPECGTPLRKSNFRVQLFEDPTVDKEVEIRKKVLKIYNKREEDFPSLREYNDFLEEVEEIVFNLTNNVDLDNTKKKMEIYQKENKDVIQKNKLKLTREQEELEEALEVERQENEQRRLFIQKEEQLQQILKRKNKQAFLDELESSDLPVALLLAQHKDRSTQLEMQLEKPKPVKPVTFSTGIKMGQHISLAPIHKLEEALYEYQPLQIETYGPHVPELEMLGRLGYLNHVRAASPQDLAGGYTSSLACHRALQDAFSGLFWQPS
Compound,Ki (CDK7) [nM],Ki (CDK2) [nM]
"COc1cccc(Cl)c1NC(=O)N1Cc2c(NC(=O)C3([Si](C)(C)C)CCC3)n[nH]c2C1(C)C [IV-247, N-(2-Chloro-6-methoxyphenyl)-6,6-dimethyl-3-[1-(trimethylsilyl)cyclobutanecarboxamido]-4,6-dihydropyrrolo[3,4-c]pyrazole-5(1H)-carboxamide]",≤ 50,≥ 1000
"Cc1ccc(F)c(NC(=O)N2Cc3c(NC(=O)C4([Si](C)(C)C)CCC4)n[nH]c3C2(C)C)c1 [IV-127, N-(2-Fluoro-5-methylphenyl)-6,6-dimethyl-3-[1-(trimethylsilyl)cyclobutanecarboxamido]-4,6-dihydropyrrolo[3,4-c]pyrazole-5 (1H)-carboxamide]",≤ 50,≥ 1000
"CC1(C)c2[nH]nc(NC(=O)C3([Si](C)(C)C)CCC3)c2CN1C(=O)Nc1c(F)ccc(F)c1F [IV-597, 6,6-Dimethyl-N-(2,3,6-trifluorophenyl)-3-[1-(trimethylsilyl)cyclobutanecarboxamido]-4,6-dihydropyrrolo[3,4-c]pyrazole-5(1H)-carboxamide]",≤ 50,≥ 1000
"CC1(C)c2[nH]nc(NC(=O)C3([Si](C)(C)C)CCC3)c2CN1C(=O)Nc1c(F)cccc1Cl [IV-113, N-(2-Chloro-6-fluorophenyl)-6,6-dimethyl-3-[1-(trimethylsilyl)cyclobutanecarboxamido]-4,6-dihydropyrrolo[3,4-c]pyrazole-5(1H)-carboxamide]",≤ 50,≥ 1000
"CC1(C)c2[nH]nc(NC(=O)C3([Si](C)(C)C)CCC3)c2CN1C(=O)Nc1c(F)ccc2ccoc12 [IV-1049, N-(6-Fluorobenzofuran-7-yl)-6,6-dimethyl-3-[1-(trimethylsilyl)cyclobutanecarboxamido]-4,6-dihydropyrrolo[3,4-c]pyrazole-5 (1H)-carboxamide]",≤ 50,≥ 1000
"CC1(C)c2[nH]nc(NC(=O)C3([Si](C)(C)C)CCC3)c2CN1C(=O)Nc1c(F)cccc1OC(F)F [IV-169, N-[2-(Difluoromethoxy)-6-fluorophenyl]-6,6-dimethyl-3-[1-(trimethylsilyl)cyclobutanecarboxamido]-4,6-dihydropyrrolo[3,4-c]pyrazole-5(1H)-carboxamide]",≤ 50,≥ 1000
"Cc1ccc(C)c(NC(=O)N2Cc3c(NC(=O)C4([Si](C)(C)C)CCC4)n[nH]c3C2(C)C)c1F [IV-669, N-(2-Fluoro-3,6-dimethylphenyl)-6,6-dimethyl-3-[1-(trimethylsilyl)cyclobutanecarboxamido]-4,6-dihydropyrrolo[3,4-c]pyrazole-5(1H)-carboxamide]",≤ 50,≥ 1000
"CCc1cccc(C)c1NC(=O)N1Cc2c(NC(=O)C3([Si](C)(C)C)CCC3)n[nH]c2C1(C)C [IV-389, N-(2-Ethyl-6-methylphenyl)-6,6-dimethyl-3-[1-(trimethylsilyl)cyclobutanecarboxamido]-4,6-dihydropyrrolo[3,4-c]pyrazole-5 (1H)-carboxamide]",≤ 50,≥ 1000
"CCc1cccc(F)c1NC(=O)N1Cc2c(NC(=O)C3([Si](C)(C)C)CCC3)n[nH]c2C1(C)C [IV-137, N-(2-Ethyl-6-fluorophenyl)-6,6-dimethyl-3-[1-(trimethylsilyl)cyclobutanecarboxamido]-4,6-dihydropyrrolo[3,4-c]pyrazole-5(1H)-carboxamide]",≤ 50,≥ 1000
"CC1(C)c2[nH]nc(NC(=O)C3([Si](C)(C)C)CCC3)c2CN1C(=O)Nc1c(Cl)cccc1Cl [IV-199, N-(2,6-Dichlorophenyl)-6,6-dimethyl-3-[1-(trimethylsilyl)cyclobutanecarboxamido]-4,6-dihydropyrrolo[3,4-c]pyrazole-5(1H)-carboxamide]",≤ 50,≥ 1000
"CC1(C)c2[nH]nc(NC(=O)C3([Si](C)(C)C)CCC3)c2CN1C(=O)Nc1c(F)ccc2cc(Cl)oc12 [IV-1063, N-(2-Chloro-6-fluorobenzofuran-7-yl)-6,6-dimethyl-3-[1-(trimethylsilyl)cyclobutanecarboxamido]-4,6-dihydropyrrolo[3,4-c]pyrazole-5(1H)-carboxamide]",≤ 50,≥ 1000
"COc1cccc(F)c1NC(=O)N1Cc2c(NC(=O)C3([Si](C)(C)C)CCC3)n[nH]c2C1(C)C [IV-161, N-(2-Fluoro-6-methoxyphenyl)-6,6-dimethyl-3-[1-(trimethylsilyl)cyclobutanecarboxamido]-4,6-dihydropyrrolo[3,4-c]pyrazole-5(1H)-carboxamide]",≤ 50,≥ 1000

# Other lines, results leading:
Ki (CDK7) [nM],Ki (CDK2) [nM],Compound
≤ 50,≥ 1000,"Cc1cccc(F)c1NC(=O)N1Cc2c(NC(=O)C3([Si](C)(C)C)CCC3)n[nH]c2C1(C)C [IV-129, N-(2-Fluoro-6-methylphenyl)-6,6-dimethyl-3-[1-(trimethylsilyl)cyclobutanecarboxamido]-4,6-dihydropyrrolo[3,4-c]pyrazole-5 (1H)-carboxamide]"
≤ 50,≥ 1000,"Cc1ccccc1NC(=O)N1Cc2c(NC(=O)C3([Si](C)(C)C)CCC3)n[nH]c2C1(C)C [IV-21, 6,6-Dimethyl-N-(o-tolyl)-3-[1-(trimethylsilyl)cyclobutanecarboxamido]-4,6-dihydropyrrolo[3,4-c]pyrazole-5(1H)-carboxamide]"
≤ 50,≥ 1000,"Cc1cc(F)ccc1NC(=O)N1Cc2c(NC(=O)C3([Si](C)(C)C)CCC3)n[nH]c2C1(C)C [IV-359, N-(4-Fluoro-2-methylphenyl)-6,6-dimethyl-3-[1-(trimethylsilyl)cyclobutanecarboxamido]-4,6-dihydropyrrolo[3,4-c]pyrazole-5 (1H)-carboxamide]"
≤ 50,≥ 1000,"Cc1ccc(C)c(NC(=O)N2Cc3c(NC(=O)C4([Si](C)(C)C)CCC4)n[nH]c3C2(C)C)c1 [IV-379, N-(2,5-Dimethylphenyl)-6,6-dimethyl-3-[1-(trimethylsilyl)cyclobutanecarboxamido]-4,6-dihydropyrrolo[3,4-c]pyrazole-5(1H)-carboxamide]"
≤ 50,≥ 1000,"CC1(C)c2[nH]nc(NC(=O)C3([Si](C)(C)C)CCC3)c2CN1C(=O)Nc1ccccc1F [IV-3, N-(2-Fluorophenyl)-6,6-dimethyl-3-[1-(trimethylsilyl)cyclobutanecarboxamido]-4,6-dihydropyrrolo[3,4-c]pyrazole-5(1H)-carboxamide]"
≤ 50,≥ 1000,"CC1(C)c2[nH]nc(NC(=O)C3([Si](C)(C)C)CCC3)c2CN1C(=O)Nc1ccccc1Br [IV-15, N-(2-Bromophenyl)-6,6-dimethyl-3-[1-(trimethylsilyl)cyclobutanecarboxamido]-4,6-dihydropyrrolo[3,4-c]pyrazole-5(1H)-carboxamide]"
≤ 50,≥ 1000,"Cc1cccc(Br)c1NC(=O)N1Cc2c(NC(=O)C3([Si](C)(C)C)CCC3)n[nH]c2C1(C)C [IV-299, N-(2-Bromo-6-methylphenyl)-6,6-dimethyl-3-[1-(trimethylsilyl)cyclobutanecarboxamido]-4,6-dihydropyrrolo[3,4-c]pyrazole-5 (1H)-carboxamide]"
≤ 50,≥ 1000,"Cc1cccc(Cl)c1NC(=O)N1Cc2c(NC(=O)C3([Si](C)(C)C)CCC3)n[nH]c2C1(C)C [IV-215, N-(2-Chloro-6-methylphenyl)-6,6-dimethyl-3-[1-(trimethylsilyl)cyclobutanecarboxamido]-4,6-dihydropyrrolo[3,4-c]pyrazole-5 (1H)-carboxamide]"
≤ 50,≥ 1000,"Cc1ccc(F)cc1NC(=O)N1Cc2c(NC(=O)C3([Si](C)(C)C)CCC3)n[nH]c2C1(C)C [IV-361, N-(5-Fluoro-2-methylphenyl)-6,6-dimethyl-3-[1-(trimethylsilyl)cyclobutanecarboxamido]-4,6-dihydropyrrolo[3,4-c]pyrazole-5 (1H)-carboxamide]"
